From ChEMBL document CHEMBL3244320, “2-Acetylpyridine thiosemicarbazones. 1. A new class of potential antimalarial agents” (J Med Chem, 1979)
Calls of active or inactive are those of the source. The calls are words filed in the database; no cut-off is given here.

System: Plasmodium berghei
Experiment: Antimalarial activity against Plasmodium berghei KBG 173 infected in ICR/HA Swiss mouse assessed as increase in mean survival time at 40 mg/kg, sc administered 72 hrs post infection
Assay type: functional
Details: route subcutaneous

`Br.CCN(CC)CCCC(C)NC(=S)N/N=C(\C)c1ccccn1` (centres undefined) and `Br.CCN(CC)CCNC(=S)N/N=C(\C)c1ccccn1` are the same in MST: 0.3 days for the first, 0.3 days for the second.

Going from `C/C(=N\NC(=S)Nc1cccc(Cl)c1)c1ccccn1` to `C/C(=N\NC(=S)Nc1cccc(C)c1)c1ccccn1`, the MST rises from 0.3 days to 0.4 days.

Going from `C/C(=N\NC(=S)NCc1ccc(C)cc1C)c1ccccn1` to `C/C(=N\NC(=S)Nc1ccccc1C)c1ccccn1`, the MST falls from 0.5 days to 0.1 days.

Going from `C/C(=N\NC(=S)Nc1ccccn1)c1ccccn1` to `CCc1ccccc1NC(=S)N/N=C(\C)c1ccccn1`, the MST falls from 1.5 days to 0.3 days.

Going from `C/C(=N\NC(=S)NC(C)(C)CC(C)(C)C)c1ccccn1` to `C/C(=N\NC(=S)Nc1cccc(F)c1)c1ccccn1`, the MST rises from 1.1 days to 4.4 days.

Going from `C/C(=N\NC(=S)Nc1ccccc1[N+](=O)[O-])c1ccccn1` to `C/C(=N\NC(=S)NC12CC3CC(CC(C3)C1)C2)c1ccccn1`, the MST rises from 0.1 days to 0.7 days.

System: Plasmodium berghei
Experiment: Antimalarial activity against Plasmodium berghei KBG 173 infected in ICR/HA Swiss mouse at 40 to 640 mg/kg, sc administered 72 hrs post infection
Assay type: functional, organism-based
Details: not given

`C/C(=N\NC(=S)NC12CC3CC(CC(C3)C1)C2)c1cccnc1` was tested, and the Activity was “inactive”.
`C/C(=N\NC(=S)NC12CC3CC(CC(C3)C1)C2)c1ccncc1` was tested, and the Activity was “inactive”.
`C/C(=N\NC(=S)Nc1ccccc1)c1cccnc1` was tested, and the Activity was “inactive”.
With `C/C(=N\NC(=S)Nc1ccccn1)c1ccncc1` the Activity was “inactive”.
`C/C(=N\NC(=S)Nc1ccccc1)c1ccncc1` was tested, and the Activity was “inactive”.
For `C/C(=N\NC(=S)Nc1ccccn1)c1cccnc1`, the Activity was “inactive”.
`C/C(=N\NC(=O)Nc1ccccc1)c1ccccn1` was tested, and the Activity was “inactive”.

System: Mus musculus
Experiment: Toxicity in ICR/HA Swiss mouse infected with Plasmodium berghei KBG 173 assessed as mortality at 640 mg/kg, sc administered 72 hrs post infection measured for 6 days
Assay type: organism-based
Parameters: dose 640 mg/kg, route subcutaneous
Details: in vivo, 144 h

In the case of `C/C(=N\NC(N)=S)c1ccccn1`, the Activity is reported as “Toxic”.
In the case of `Br.CCN(CC)CCCC(C)NC(=S)N/N=C(\C)c1ccccn1` (centres undefined), the Activity is reported as “Toxic”.
In the case of `Br.CCN(CC)CCNC(=S)N/N=C(\C)c1ccccn1`, the Activity is reported as “Toxic”.

System: Plasmodium berghei
Experiment: Antimalarial activity against Plasmodium berghei KBG 173 infected in ICR/HA Swiss mouse assessed as curative effect at 320 mg/kg, sc administered 72 hrs post infection
Assay type: functional, organism-based
Parameters: dose 320 mg/kg
Details: not given

With `C/C(=N\NC(=S)Nc1cccc(C)c1)c1ccccn1` the Activity was “Active”.
With `C/C(=N\NC(=S)Nc1cccc(F)c1)c1ccccn1` the Activity was “Active”.

System: Plasmodium berghei
Experiment: Antimalarial activity against Plasmodium berghei KBG 173 infected in ICR/HA Swiss mouse assessed as increase in mean survival time at 160 mg/kg, sc administered 72 hrs post infection
Assay type: functional
Details: route subcutaneous

First: C/C(=N\NC(=S)Nc1cccc(Cl)c1)c1ccccn1
Second: C/C(=N\NC(=S)Nc1cccc(C)c1)c1ccccn1
The MST of the first is lower: 2.5 days for the first, 7.4 days for the second.

First: C/C(=N\NC(=S)NCc1ccc(C)cc1C)c1ccccn1
Second: C/C(=N\NC(=S)Nc1ccccc1C)c1ccccn1
The MST of the first is higher: 3.1 days for the first, 0.9 days for the second.

First: C/C(=N\NC(=S)Nc1ccccn1)c1ccccn1
Second: CCc1ccccc1NC(=S)N/N=C(\C)c1ccccn1
The MST of the first is higher: 4.5 days for the first, 0.7 days for the second.

First: C/C(=N\NC(=S)NC(C)(C)CC(C)(C)C)c1ccccn1
Second: Br.CCN(CC)CCNC(=S)N/N=C(\C)c1ccccn1
The MST of the first is higher: 0.9 days for the first, 0.5 days for the second.

Compared with `C/C(=N\NC(=S)Nc1ccccc1[N+](=O)[O-])c1ccccn1`, `C/C(=N\NC(=S)Nc1cccc(F)c1)c1ccccn1` is higher in MST: 0.9 days for the first, 6.6 days for the second.

`C/C(=N\NC(=S)NC12CC3CC(CC(C3)C1)C2)c1ccccn1` and `CC/C(=N\NC(=S)NC12CC3CC(CC(C3)C1)C2)c1ccccn1` are the same in MST: 3.7 days for the first, 3.7 days for the second.

System: Mus musculus
Experiment: Toxicity in ICR/HA Swiss mouse infected with Plasmodium berghei KBG 173 assessed as mortality at 160 mg/kg, sc administered 72 hrs post infection measured for 6 days
Assay type: organism-based
Parameters: dose 160 mg/kg, route subcutaneous
Details: in vivo, 144 h

For `C/C(=N\NC(N)=S)c1ccccn1`, the Activity was “Toxic”.

System: Mus musculus
Experiment: Toxicity in ICR/HA Swiss mouse infected with Plasmodium berghei KBG 173 assessed as mortality at 40 mg/kg, sc administered 72 hrs post infection measured for 6 days
Assay type: organism-based
Parameters: dose 40 mg/kg, route subcutaneous
Details: in vivo, 144 h

In the case of `C/C(=N\NC(N)=S)c1ccccn1`, the Activity is reported as “Toxic”.

System: Plasmodium berghei
Experiment: Antimalarial activity against Plasmodium berghei KBG 173 infected in ICR/HA Swiss mouse assessed as increase in mean survival time at 640 mg/kg, sc administered 72 hrs post infection
Assay type: functional
Details: route subcutaneous

First: C/C(=N\NC(=S)Nc1cccc(Cl)c1)c1ccccn1
Second: C/C(=N\NC(=S)Nc1ccccc1C)c1ccccn1
The MST of the first is lower: 7.1 days for the first, 9.9 days for the second.

Going from `C/C(=N\NC(=S)NCc1ccc(C)cc1C)c1ccccn1` to `CCc1ccccc1NC(=S)N/N=C(\C)c1ccccn1`, the MST falls from 8.9 days to 5.1 days.

First: C/C(=N\NC(=S)Nc1ccccn1)c1ccccn1
Second: C/C(=N\NC(=S)Nc1ccccc1[N+](=O)[O-])c1ccccn1
The MST of the first is higher: 8.1 days for the first, 4.5 days for the second.

Going from `C/C(=N\NC(=S)NC(C)(C)CC(C)(C)C)c1ccccn1` to `C/C(=N\NC(=S)NC12CC3CC(CC(C3)C1)C2)c1ccccn1`, the MST rises from 8.7 days to 9.2 days.

With `CC/C(=N\NC(=S)NC12CC3CC(CC(C3)C1)C2)c1ccccn1` the MST was 9.1 days.

System: Plasmodium berghei
Experiment: Antimalarial activity against Plasmodium berghei KBG 173 infected in ICR/HA Swiss mouse assessed as increase in mean survival time at 320 mg/kg, sc administered 72 hrs post infection
Assay type: functional
Details: route subcutaneous

Going from `C/C(=N\NC(=S)Nc1cccc(Cl)c1)c1ccccn1` to `C/C(=N\NC(=S)Nc1cccc(C)c1)c1ccccn1`, the MST rises from 5.1 days to 10.3 days.

First: C/C(=N\NC(=S)NCc1ccc(C)cc1C)c1ccccn1
Second: C/C(=N\NC(=S)Nc1ccccc1C)c1ccccn1
The MST of the first is higher: 6.1 days for the first, 5.1 days for the second.

First: C/C(=N\NC(=S)Nc1ccccn1)c1ccccn1
Second: CCc1ccccc1NC(=S)N/N=C(\C)c1ccccn1
The MST of the first is higher: 6.5 days for the first, 3.1 days for the second.

Compared with `C/C(=N\NC(=S)NC(C)(C)CC(C)(C)C)c1ccccn1`, `C/C(=N\NC(=S)Nc1ccccc1[N+](=O)[O-])c1ccccn1` is higher in MST: 2.9 days for the first, 5.7 days for the second.

First: C/C(=N\NC(=S)NC12CC3CC(CC(C3)C1)C2)c1ccccn1
Second: CC/C(=N\NC(=S)NC12CC3CC(CC(C3)C1)C2)c1ccccn1
The MST of the first is higher: 8.5 days for the first, 6.3 days for the second.

System: Mus musculus
Experiment: Toxicity in ICR/HA Swiss mouse infected with Plasmodium berghei KBG 173 assessed as mortality at 320 mg/kg, sc administered 72 hrs post infection measured for 6 days
Assay type: organism-based
Parameters: dose 320 mg/kg, route subcutaneous
Details: in vivo, 144 h

For `Br.CCN(CC)CCNC(=S)N/N=C(\C)c1ccccn1`, the Activity was “Toxic”.

System: Plasmodium berghei
Experiment: Antimalarial activity against Plasmodium berghei KBG 173 infected in ICR/HA Swiss mouse assessed as increase in mean survival time at 80 mg/kg, sc administered 72 hrs post infection
Assay type: functional
Details: route subcutaneous

First: C/C(=N\NC(=S)Nc1cccc(Cl)c1)c1ccccn1
Second: C/C(=N\NC(=S)Nc1cccc(C)c1)c1ccccn1
The MST of the first is lower: 0.3 days for the first, 3 days for the second.

Compared with `C/C(=N\NC(=S)NCc1ccc(C)cc1C)c1ccccn1`, `C/C(=N\NC(=S)Nc1ccccc1C)c1ccccn1` is higher in MST: 0.1 days for the first, 0.5 days for the second.

Going from `C/C(=N\NC(=S)Nc1ccccn1)c1ccccn1` to `CCc1ccccc1NC(=S)N/N=C(\C)c1ccccn1`, the MST falls from 2.7 days to 0.3 days.

First: C/C(=N\NC(=S)NC(C)(C)CC(C)(C)C)c1ccccn1
Second: C/C(=N\NC(=S)Nc1cccc(F)c1)c1ccccn1
The MST of the first is lower: 1.3 days for the first, 5.8 days for the second.

Compared with `C/C(=N\NC(=S)Nc1ccccc1[N+](=O)[O-])c1ccccn1`, `C/C(=N\NC(=S)NC12CC3CC(CC(C3)C1)C2)c1ccccn1` is higher in MST: 0.1 days for the first, 1.1 days for the second.

Work on `CC/C(=N\NC(=S)NC12CC3CC(CC(C3)C1)C2)c1ccccn1` yielded an MST of 0.3 days.
